According to the NIST ThermoML archive (doi:10.1016/j.jct.2018.11.011):
Numbers after ± are expanded uncertainties.

Assay: molar heat capacity at constant pressure
Details: 101.33 kPa, Crystal, Small (less than 1 g) adiabatic calorimetry

O=C([O][Sb]([c]1ccccc1)([c]1ccccc1)([c]1ccccc1)[c]1ccccc1)c1ccccc1 [tetraphenylantimony benzoate]
Details | molar heat capacity at constant pressure [J/K/mol]
5 K | 1.72 ± 0.083
5.54 K | 2.34 ± 0.11
5.81 K | 2.55 ± 0.12
6.27 K | 3.24 ± 0.14
6.56 K | 3.56 ± 0.16
6.92 K | 4.25 ± 0.18
7.71 K | 5.93 ± 0.26
7.98 K | 6.39 ± 0.27
8.34 K | 7.12 ± 0.31
8.69 K | 7.77 ± 0.33
9.05 K | 8.56 ± 0.33
9.58 K | 9.73 ± 0.42
10 K | 10.9 ± 0.5
10.05 K | 10.9 ± 0.5
10.43 K | 12 ± 0.5
10.82 K | 13.1 ± 0.58
11.21 K | 14.2 ± 0.58
11.44 K | 14.8 ± 0.58
11.66 K | 15.5 ± 0.67
12.08 K | 16.7 ± 0.67
12.66 K | 18.5 ± 0.75
13.36 K | 20.5 ± 0.83
14.03 K | 22.5 ± 0.91
14.57 K | 24.4 ± 1
15 K | 25.6 ± 1.1
15.26 K | 26.4 ± 0.42
15.94 K | 28.6 ± 0.42
16.62 K | 30.87 ± 0.44
17.29 K | 33.05 ± 0.47
17.96 K | 35.26 ± 0.49
18.62 K | 37.36 ± 0.52
18.8 K | 38.09 ± 0.52
19.31 K | 39.63 ± 0.54
19.97 K | 41.7 ± 0.56
20 K | 41.81 ± 0.57
20.6 K | 43.6 ± 0.58
22.51 K | 49.65 ± 0.64
25 K | 57.77 ± 0.72
25.94 K | 60.95 ± 0.75
29.45 K | 71.99 ± 0.84
30 K | 73.7 ± 0.81
31.45 K | 78.36 ± 0.86
33 K | 82.85 ± 0.91
33.62 K | 84.64 ± 0.91
35 K | 88.8 ± 1
35.87 K | 91.21 ± 1
36.5 K | 93.12 ± 1
40 K | 102.8 ± 1.1
40.06 K | 103.7 ± 0.58
43 K | 111 ± 0.67
45 K | 115.8 ± 0.67
46.68 K | 120.9 ± 0.67
49.76 K | 127.9 ± 0.75
50 K | 128 ± 0.75
53.38 K | 136.9 ± 0.75
57.02 K | 145.6 ± 0.83
60 K | 151.4 ± 0.83
60.66 K | 154.2 ± 0.91
64.31 K | 162 ± 0.91
67.97 K | 169.5 ± 0.91
70 K | 174.2 ± 1
71.63 K | 177 ± 1
75.29 K | 185.6 ± 1.1
78 K | 192 ± 1.1
80 K | 195.9 ± 1.1
82.52 K | 200.4 ± 1.1
83.53 K | 202.5 ± 1.2
85.67 K | 207 ± 1.2
88.37 K | 212.3 ± 1.2
90 K | 214.8 ± 1.2
90.22 K | 215.5 ± 1.2
92.48 K | 218.9 ± 1.2
93.76 K | 221 ± 1.2
95.63 K | 223.7 ± 1.2
99.16 K | 228.6 ± 1.2
100 K | 229.7 ± 1.2
102.7 K | 234 ± 1.2
106.23 K | 240 ± 1.2
109.78 K | 244.9 ± 1.2
113.32 K | 250.2 ± 1.3
116 K | 255 ± 1.3
119.8 K | 262 ± 1.3
120 K | 262 ± 1.3
123.36 K | 267.2 ± 1.4
126.75 K | 273.3 ± 1.4
128 K | 275.2 ± 1.4
132.8 K | 282.4 ± 1.5
136 K | 287 ± 1.5
139.71 K | 293.3 ± 1.5
140 K | 293.6 ± 1.5
144.47 K | 301.3 ± 1.6
146.16 K | 303.1 ± 1.6
151.28 K | 310.8 ± 1.6
155 K | 315 ± 1.7
158.48 K | 321.9 ± 1.7
160 K | 324.2 ± 1.7
161 K | 326 ± 1.7
164.87 K | 332.4 ± 1.7
168.1 K | 336.4 ± 1.7
169.28 K | 338.2 ± 1.7
172.52 K | 344.3 ± 1.7
